Drawing on PubChem BioAssay AID449750 (Broad Institute, 2010), this text covers AC50 for 94 compounds.

Activity calls are given as the source filed them. The rule behind the calls is not given here.

The test in a line: non-covalent RecA intein splicing inhibitors, dose response, biochemical, cell-free, fluorescence, secondary screen (AID 449750).
For the compound `Cc1ccc(Sc2c(C)[nH]n(C(C)(C)C)c2=O)cc1`, the AC50 is > 38 µM (inactive).

For the compound `COc1ccc(N2C(=O)CSC23C(=O)N2c4c(cccc43)C(C)=CC2(C)C)cc1` (centres undefined), the concentration at half-maximal activity (AC50) was 30.8 µM.

Regarding `CC(=O)NCCn1c(SCc2ccccc2C)nc2ccccc2c1=O`, the AC50 is > 38 µM (inactive).

Take `O=c1[nH]c(Nc2ccccc2)cc2cc(Br)ccc12`: the AC50 is 7 µM.

With `O=C(O)CN1C(=O)/C(=C\c2ccc(OC(=O)c3ccco3)cc2)SC1=S`, the AC50 is > 38 µM (inactive).

In the case of `CCOc1c(Br)cc(/C=C2\C(=O)N(CCC#N)N=C2C)cc1OC`, the concentration at half-maximal activity (AC50) was 11.1 µM.

In the case of `COc1ccc(CNC(=O)c2c(C)oc3c2C(=O)c2ccccc2C3=O)cc1`, the AC50 was 14.3 µM.

`CN1c2ccccc2C(C)(C)C12C=Nc1c(cc(N3CCOCC3)c3ccccc13)O2` (centres undefined): the AC50 is > 38 µM (inactive).

As for `COc1cccc(Nc2c([N+](=O)[O-])cncc2[N+](=O)[O-])c1`, the AC50 is > 38 µM (inactive).

On to `CCCCCCCOC(=O)c1ccc(OC(=O)c2cccnc2)cc1`, for which the AC50 is 4.17 µM.

Take `O=c1[nH]cc(N=Cc2cc(Cl)cc(Cl)c2O)c(=O)[nH]1`: the AC50 is > 38 µM (inactive).

On to `CCOC(=O)c1nc(C)n(-c2ccc(Cl)cc2)n1`, for which the AC50 was > 38 µM (inactive).

As to `Cc1ccc(-n2nc(C)c3c2OC(N)=C(C#N)C3c2ccoc2)cc1` (centres undefined), the concentration at half-maximal activity (AC50) is 6.18 µM.

For the compound `CN(C)c1ccc2nsnc2c1[N+](=O)[O-]`, the AC50 is > 38 µM (inactive).

As for `COc1ccc(Nc2ccc(OC)cc2)cc1`, the AC50 was > 38 µM (inactive).

Regarding `CC(=O)c1ccc(-c2cccc(-c3nc4ccccn4c3NC3CCCCC3)c2)cc1`, the AC50 is 6.79 µM.

On to `Cc1ccc(C(c2c(C)[nH][nH]c2=O)c2c(C)[nH][nH]c2=O)cc1`, for which the AC50 was 8.37 µM.

In the case of `CN(Cc1ccc(Cl)cc1)C(=O)CCl`, the concentration at half-maximal activity (AC50) was 10.2 µM.

`CCCNC1=C(N(C(C)=O)c2cccc(F)c2)C(=O)c2ccccc2C1=O`: the AC50 is 3.72 µM.

With `COC(=O)COc1ccc(C(c2c(C)[nH][nH]c2=O)c2c(C)[nH][nH]c2=O)cc1`, the AC50 was 13 µM.

Consider `O=c1[nH]cc(O)c(=O)[nH]1`, for which the half-maximal activity concentration (AC50) is 7.38 µM.

For `CC1=NN(c2ccc(C)cc2C)C(=O)C1C(c1ccccc1)C1C(=O)N(c2ccc(C)cc2C)N=C1C` (centres undefined), the half-maximal activity concentration (AC50) was 3.04 µM.

On to `COc1ccc(N(C(=O)CCl)C(C(=O)NC2CCCCC2)c2cccnc2)cc1` (centres undefined), for which the AC50 was 3.87 µM.

As to `O=c1c2ccccc2nc2n1CCS2(=O)=O`, the AC50 is > 38 µM (inactive).

As for `O=C(O)c1ccc(S(=O)(=O)/N=C2\C=C(Nc3ccccc3F)C(=O)c3ccccc32)cc1`, the half-maximal activity concentration (AC50) was 0.229 µM.

As to `Cc1cc(O)ccc1Nc1nc(-c2cccs2)cs1`, the AC50 is 31.7 µM.

With `CC/C(=C/c1sc2ccc(C)cc2[n+]1CCO)SC`, the AC50 was > 38 µM (inactive).

As for `CC(=O)n1cc(N(C(=O)CCl)c2ccc(Cl)cc2)c2ccccc21`, the half-maximal activity concentration (AC50) was 2.08 µM.

For the compound `N#CC1=C(N)Oc2n[nH]c(-c3cccs3)c2C1c1ccoc1` (centres undefined), the AC50 was > 38 µM (inactive).

In the case of `Nc1ccc(Nc2ccccc2N)cc1`, the AC50 was 16 µM.

As to `CC(=O)c1cccc(NC(=O)CSc2ncc(C(=O)Nc3ccccc3)c(=O)n2C)c1`, the AC50 was > 12 µM (inactive).

For `O=C1CCN(S(=O)(=O)c2ccccc2)N1`, the AC50 was > 38 µM (inactive).

With `C(=N\Nc1nncc2ccccc12)/c1ccccn1`, the AC50 is 19.8 µM.

`O=C(NCc1cccnc1)/C(=C/c1ccc(-c2ccc(Cl)cc2)o1)S(=O)(=O)c1ccccc1`: the AC50 is 32.4 µM.

On to `O=[N+]([O-])c1ccc(Oc2cccc(Br)c2)c2ccncc12`, for which the AC50 is 13.1 µM.

On to `CCN(Cc1ccccc1)S(=O)(=O)c1ccc(C(=O)N(CCCN(C)C)c2nc3cc(C)cc(C)c3s2)cc1`, for which the half-maximal activity concentration (AC50) was 15.1 µM.

As to `COc1ccccc1/C=C/C1(C(=O)NC2CCCC2)CC(=O)N1c1ccc(F)cc1` (centres undefined), the concentration at half-maximal activity (AC50) was 9.42 µM.

For `CC1(C)CC(=O)C(C2(O)C(=O)NC(=O)NC2=O)=C(O)C1`, the AC50 is 1.79 µM.

On to `O=C(NNC(=O)c1ccc([N+](=O)[O-])o1)c1ccccc1`, for which the half-maximal activity concentration (AC50) is 33.6 µM.

Consider `N#Cc1c(N2CCCC2)nc(N)c2c(N)nc(N3CCCC3)cc12`, for which the AC50 was 0.774 µM.

With `COc1cccc(C(=O)Nc2nc(SCc3ccc(Cl)cc3)n[nH]2)c1`, the AC50 was > 38 µM (inactive).

On to `CCOC(=O)c1[nH]c(=O)c2ccccc2c1O`, for which the AC50 is 2.65 µM.

For the compound `COc1ccc(/C=N/NC(=O)c2nn(-c3ccccc3)c(=O)c3c(N)scc23)cc1`, the AC50 is > 38 µM (inactive).

Consider `Cc1cc(C)c(C#N)c(SCc2[nH]nc3c2C(c2ccc(F)cc2)C(C#N)=C(N)O3)n1` (centres undefined), for which the AC50 was 29.2 µM.

Consider `O=C(Cc1ccccc1)NC1(O)C(=O)c2ccccc2C1=O`, for which the AC50 was 7.01 µM.

For `CC1=NNC(=O)/C1=C\c1cn(-c2ccccc2)nc1-c1cccs1`, the half-maximal activity concentration (AC50) is 9.64 µM.

Take `CC1=C(C)/C(=N\OC(=O)/C=C/c2ccccc2)C=CC1=O`: the AC50 was > 38 µM (inactive).

In the case of `COCCN(C(=O)CCl)C(C(=O)NC1CCCCC1)c1ccccc1C` (centres undefined), the concentration at half-maximal activity (AC50) is 8.09 µM.

Regarding `CC1=NN(CCC#N)C(=O)/C1=C/c1ccc(N(C)C)cc1`, the AC50 was 22.4 µM.

Regarding `Cc1ccc(S(=O)(=O)N(C(=O)c2ccncc2)c2ccc(OC(=O)c3ccncc3)c3ccccc23)c(C)c1`, the concentration at half-maximal activity (AC50) was 16.9 µM.

As to `CCOC(=O)Cc1[nH]nc2c1C(c1ccsc1)C(C#N)=C(N)O2` (centres undefined), the AC50 was > 38 µM (inactive).

Regarding `COc1cc(/C=C2/C(=O)N(c3ccccc3)N=C2C)ccc1OS(=O)(=O)c1ccccc1`, the concentration at half-maximal activity (AC50) was 3.34 µM.

`CC(=O)Nc1cccc(NC(=O)CSc2ncc(C(=O)Nc3ccccc3)c(=O)n2C)c1`: the AC50 was > 38 µM (inactive).

As to `COc1cc(/C=C(\C#N)C(=O)c2c[nH]c3ccccc23)cc(OC)c1O`, the AC50 is > 38 µM (inactive).

For `COc1ccc(NC(=O)c2cccc(N3C(=O)C4C5C=CC(C5)C4C3=O)c2)cc1Cl` (centres undefined), the AC50 was > 38 µM (inactive).

`CCCCCCCCCCOC(=O)Cn1c(COc2cccc(C)c2)[n+](C)c2ccccc21`: the AC50 was 7.35 µM.

With `N#C/C(=C/c1ccncc1)c1nc2ccccc2s1`, the AC50 is > 38 µM (inactive).

Take `CCc1ccccc1N1C(=O)C(Cl)=C(N2CCOCC2)C1=O`: the AC50 is > 38 µM (inactive).

For the compound `CCCc1[nH][nH]c(=O)c1C(c1cccc(Cl)c1)C(C#N)C#N` (centres undefined), the AC50 was 9.32 µM.

For `Cc1ccc2c(c1)-c1c(ssc1=S)C(C)(C)N2C(=O)CSC1=NCCS1`, the concentration at half-maximal activity (AC50) is 32.5 µM.

In the case of `COc1ccccc1-n1nnnc1S(=O)(=O)Cc1ccc(Cl)cc1`, the AC50 was > 38 µM (inactive).

On to `CCCc1[nH]nc2c1C(c1ccc(OC(=O)c3ccco3)cc1)C(C#N)=C(N)O2` (centres undefined), for which the AC50 was > 38 µM (inactive).

On to `O=C1C=C(Nc2cccc3cccnc23)c2ccccc2C1=O`, for which the AC50 was 24.2 µM.

As to `CCOc1cc(C(c2c(C)[nH][nH]c2=O)c2c(C)[nH][nH]c2=O)cc(Cl)c1O`, the AC50 was > 38 µM (inactive).

`O=C(c1c[nH]c(C(=O)C(Cl)(Cl)Cl)c1)c1ccccc1Cl`: the half-maximal activity concentration (AC50) is 24.9 µM.

Take `CN1CCc2nc(SCC(=O)Nc3ccc(OC(F)(F)F)cc3)c(C#N)c(-c3cccs3)c2C1`: the AC50 was 23.7 µM.

`COc1ccc(NC(=O)/C(Cl)=C(/Cl)S(=O)(=O)Cc2ccc(C)cc2)cn1`: the concentration at half-maximal activity (AC50) was 35.2 µM.

Take `C#CCOc1ccc(OC)cc1C(c1c(C)[nH][nH]c1=O)c1c(C)[nH][nH]c1=O`: the concentration at half-maximal activity (AC50) is 17.3 µM.

`N=C1/C(=C\c2ccc(OC(=O)c3ccc(F)cc3)cc2)C(=O)N=C2SC(N3CCOCC3)=NN12`: the AC50 is > 38 µM (inactive).

Consider `COc1cc(NC2CCCCC2O)c2nc(-c3ccc(Cl)cc3)ccc2c1` (centres undefined), for which the half-maximal activity concentration (AC50) is 9.05 µM.

For `CCOc1ccccc1CNc1ccc(O)cc1`, the AC50 is 37.6 µM.

As for `Cn1c(SCC(=O)NCc2ccc(F)cc2)nc2ccccc21`, the AC50 was > 38 µM (inactive).

As for `CC1=C(C)CC2(SC1)C(=O)N(c1ccccc1)N=C2N` (centres undefined), the AC50 was > 38 µM (inactive).

As for `CCC(C)[C@H](NC(=O)NC1CCN(Cc2ccccc2)CC1)C(=O)OC` (some centres undefined), the AC50 is 5.82 µM.

As for `Cc1cccc(C)c1NC(=O)c1nc(S(=O)(=O)Cc2ccccc2)ncc1Cl`, the AC50 was > 38 µM (inactive).

In the case of `Cn1c(=O)[nH]c(=O)c2c1nc([N+](=O)[O-])n2Cc1ccccc1`, the AC50 is > 38 µM (inactive).

In the case of `O=C(NC1CCCC1)C(c1ccc(F)cc1)N(Cc1ccc(Cl)cc1)C(=O)CCl` (centres undefined), the half-maximal activity concentration (AC50) is 5.55 µM.

As to `CCC(CC)C(=O)NCc1ccc2c(c1)cc(C)n2C`, the AC50 was > 38 µM (inactive).

For `CC(Nc1c[nH]c(=O)[nH]c1=O)c1ccccc1` (centres undefined), the AC50 is > 38 µM (inactive).

As to `CCCCCCCCCCOC(=O)Cn1c(COc2ccc(C)cc2)[n+](C)c2ccccc21`, the AC50 was 8.88 µM.

`COc1ccc(Cc2nccc3cc(OC)c(OC)cc23)cc1OC`: the AC50 is > 38 µM (inactive).

With `C=CCNC1=C(Cl)C(=O)c2ccccc2C1=O`, the AC50 was 18.4 µM.

For the compound `Cc1c(C#N)c(NC(=O)CCl)n(Cc2ccc(F)cc2)c1C`, the concentration at half-maximal activity (AC50) is 3.69 µM.

Turning to `CC1=C(CC(=O)c2ccccc2)C(=O)c2ccccc2C1=O`, the half-maximal activity concentration (AC50) is 16.6 µM.

Turning to `COc1ccc(Nc2ccc3c(c2)=NC2(CCCCC2)[N+]=3[O-])cc1`, the AC50 was 15 µM.

As to `CCn1c(COc2cccc3ccccc23)nnc1SCC(N)=O`, the AC50 is > 38 µM (inactive).

Turning to `Cc1ccc(-c2cc(=O)[nH][nH]2)c(C)c1`, the AC50 is 34.3 µM.

In the case of `COc1cc(C(c2c(C)[nH][nH]c2=O)c2c(C)[nH][nH]c2=O)cc(Br)c1OC`, the half-maximal activity concentration (AC50) is 13.9 µM.

`Cc1[nH]n(-c2ccccc2)c(=O)c1C(c1cccc([N+](=O)[O-])c1O)c1c(C)[nH]n(-c2ccccc2)c1=O`: the AC50 is 1.72 µM.

On to `O=C(CCl)N1c2ccccc2OCC1c1ccccc1` (centres undefined), for which the half-maximal activity concentration (AC50) is 12.7 µM.

On to `CCOC(=O)c1cnc(-n2[nH]c(C)c(Cc3ccccc3)c2=O)[nH]c1=O`, for which the AC50 is > 38 µM (inactive).

Turning to `COC(CN(C(=O)CCl)C(C(=O)NC1CCCCC1)c1ccc(C)cc1)OC` (centres undefined), the AC50 was 17.9 µM.

Take `O=C(Cc1cc(=O)[nH][nH]1)N/N=C/C=C/c1ccccc1`: the AC50 is 20.8 µM.

As to `COc1cc(/C=N/NC(=O)c2ccc(F)cc2)ccc1OC(=O)c1ccco1`, the AC50 is > 38 µM (inactive).

A word on the AC50: it is the concentration giving half of the maximal activity seen.
